In patent US20260226067A1, “MODULATORS OF TRPML, THEIR COMPOSITIONS AND METHODS OF USE” (Caraway Therapuetics, Inc., priority 2023, published 2026) one finds EC50 data, which are given here for 15 molecules.

Each structure is given as a SMILES string. Where only a bound is given, the exact number is not on record here.

Assay type in all cases: cell-based
For one test, the target named is T1, Human TRPML3 (Homo sapiens, UniProt Q8TDD5).
T1 construct: expressed in transfected cells
T1 sequence (Q8TDD5 1-553): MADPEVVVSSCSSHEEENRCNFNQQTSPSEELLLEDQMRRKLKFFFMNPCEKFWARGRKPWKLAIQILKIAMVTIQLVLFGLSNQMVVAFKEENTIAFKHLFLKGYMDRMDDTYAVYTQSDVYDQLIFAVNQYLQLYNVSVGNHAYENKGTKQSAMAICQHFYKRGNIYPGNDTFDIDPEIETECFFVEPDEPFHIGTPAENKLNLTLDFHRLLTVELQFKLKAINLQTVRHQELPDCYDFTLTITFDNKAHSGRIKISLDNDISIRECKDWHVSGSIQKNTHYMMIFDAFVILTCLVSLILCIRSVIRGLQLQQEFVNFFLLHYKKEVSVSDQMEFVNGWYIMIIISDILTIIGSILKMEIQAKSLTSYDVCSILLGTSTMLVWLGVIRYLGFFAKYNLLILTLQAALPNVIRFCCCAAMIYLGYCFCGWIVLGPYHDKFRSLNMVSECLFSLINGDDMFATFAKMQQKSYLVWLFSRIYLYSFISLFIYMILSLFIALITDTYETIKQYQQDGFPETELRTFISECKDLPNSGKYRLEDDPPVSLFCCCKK
The experiment in a line: Fluorescent TRPML3 assay (as for TRPML1). As to conditions: as TRPML1 assay with TRPML3 subtype; read-out: Human TRPML 3 EC50. As for the experimental part: (§1) HEK-293 Trex cells were stably transfected with a construct consisting of the human coding sequence for TRPML1 cloned into the tet-inducible plasmid pCDNA5 T/O. Mutations were introduced into the TRPML1 sequence to facilitate expression on the cell surface (Silvia Vergarajauregui, Rosa Puertollano Traffic. 2006 March; 7(3): 337-353). Briefly, the cells are cultured in 150 mm round tissue culture dishes containing 20 mL of media. The day before the assay the cells are rinsed with DPBS-Ca-Mg and then treated briefly with Trypsin-EDTA. The Trypsin-EDTA is diluted with growth media, and cells are counted. 38×10^6 cells are re-plated into 150 mm round tissue culture dishes in media containing 0.5 ug/mL doxycycline to induce expression of hTRPML1.
(§2) The day of the experiment cells are lifted from the plates as above and collected by centrifugation. The cells are then suspended in dye loading buffer consisting of Ringer's solution supplemented with 0.1% Pluronic Acid and 1 micromolar Fluo4-AM dye. Cells are loaded for ~60 minutes in the dark with occasional mixing. The cells are collected by centrifugation, the loading media aspirated, and the cells resuspended in 25 mL Ringer's solution and incubated ~60 minutes in the dark. The cells are again collected by centrifugation, rinsed in Ringer's Solution and resuspended to 0.2×10^6 cells/mL in modified Ringer's solution containing 10 mM calcium.
(§3) Compounds are dissolved to a concentration of 10 millimolar with DMSO. Compound plates are created by dispensing compounds into 384 well black wall clear bottom plates (Greiner 781091). Positive and negative controls are included on each plate. Typically, different amounts of each compound are tested ranging from 100 nanoMoles (20 micromolar final concentration) decreasing in half-log steps to 31 picoMoles (6 nanomolar final concentration). Each concentration is typically tested in triplicate.
(§4) 50 microliters of dye-loaded cells are dispensed into each well of the compound assay plate created above. The fluorescence in each well is then determined with an excitation wavelength of 480 nm and an emission wavelength of 540 nm using either a Molecular Devices SpectraMax multimode plate reader or a Hamamatsu FDSS/uCell plate imager.
(§5) The resulting fluorescence for each well is exported as an ascii file and loaded into our LIMS for analysis. The percent activity of each compound at each concentration is determined by comparison to the positive and negative control wells included in each plate.
(§6) Assays for TRPML2 and TRPML3 were performed as above for TRPML1, by substituting the appropriate TRPML2 or TRPML3 subtype for the TRPML1.
(§7) EC50 values were calculated using a non-linear regression of Prism. In the table, “A” indicates an EC50 of less than 100 nM, “B” indicates an EC50 range from 100 nM to 500 nM; “C” indicates an EC50 range from 500 nM to 2 μM; and “D” indicates an EC50 greater than 2 μM.

In the next test the target is T2, Human TRPML2 (Homo sapiens, UniProt Q8IZK6).
T2 construct: expressed in transfected cells
T2 sequence (Q8IZK6 1-566): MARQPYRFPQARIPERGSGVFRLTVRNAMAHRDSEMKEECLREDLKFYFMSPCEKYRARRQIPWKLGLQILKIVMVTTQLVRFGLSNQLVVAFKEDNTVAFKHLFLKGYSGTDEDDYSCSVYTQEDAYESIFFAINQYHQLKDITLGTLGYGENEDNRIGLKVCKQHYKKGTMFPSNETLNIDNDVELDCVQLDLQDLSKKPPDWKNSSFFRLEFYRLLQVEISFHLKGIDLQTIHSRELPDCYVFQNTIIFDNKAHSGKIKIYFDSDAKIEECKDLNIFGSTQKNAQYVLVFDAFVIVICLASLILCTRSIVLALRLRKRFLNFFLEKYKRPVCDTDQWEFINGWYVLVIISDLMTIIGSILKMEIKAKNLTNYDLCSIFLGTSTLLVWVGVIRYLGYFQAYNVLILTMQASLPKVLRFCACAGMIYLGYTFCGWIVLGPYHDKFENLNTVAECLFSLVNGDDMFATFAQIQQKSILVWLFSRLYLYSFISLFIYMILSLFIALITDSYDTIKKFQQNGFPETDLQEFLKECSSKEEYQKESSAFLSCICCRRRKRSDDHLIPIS
The experiment in a line: Fluorescent TRPML2 assay (as for TRPML1). As to conditions: as TRPML1 assay with TRPML2 subtype; read-out: Human TRPML 2 EC50. As for the experimental part:
as §1, §2, §3, §4, §5, §6, §7

For a further test, the target named is human TRPML1 (Homo sapiens, UniProt Q9GZU1). Description: Fluorescent TRPML1 assay (Fluo4-AM calcium fluorescence). As to conditions: HEK-293 Trex cells expressing hTRPML1, Fluo4-AM fluorescence; read-out: Human TRPML 1 EC50. As for the experimental part: as §1, §2, §3, §4, §5, §7
Sequence of human TRPML1 (Q9GZU1 whole entry L15A/L16A/L577A/L578A, form open): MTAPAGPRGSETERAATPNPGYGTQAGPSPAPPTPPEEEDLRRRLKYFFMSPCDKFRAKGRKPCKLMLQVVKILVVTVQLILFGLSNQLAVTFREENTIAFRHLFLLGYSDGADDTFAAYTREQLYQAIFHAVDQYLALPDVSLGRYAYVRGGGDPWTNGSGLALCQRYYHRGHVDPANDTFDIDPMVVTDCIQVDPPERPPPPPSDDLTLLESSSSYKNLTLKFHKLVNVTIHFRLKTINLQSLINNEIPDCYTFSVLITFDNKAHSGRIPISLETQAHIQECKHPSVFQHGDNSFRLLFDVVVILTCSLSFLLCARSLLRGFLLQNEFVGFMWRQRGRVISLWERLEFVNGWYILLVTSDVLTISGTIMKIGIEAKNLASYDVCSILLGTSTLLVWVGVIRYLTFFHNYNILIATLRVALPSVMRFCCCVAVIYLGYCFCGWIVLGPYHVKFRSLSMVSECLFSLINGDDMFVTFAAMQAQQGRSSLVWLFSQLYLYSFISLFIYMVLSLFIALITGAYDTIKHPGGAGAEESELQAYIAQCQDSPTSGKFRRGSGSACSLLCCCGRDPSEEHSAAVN

`C[C@@H]1CN(c2ncnc3c2c(C(F)(F)F)cn3-c2cc(C#N)ccn2)[C@@H](C)CN1C(=O)c1ccccc1` [Compound 103, 2-(4-((2S,5R)-4-benzoyl-2,5-dimethylpiperazin-1-yl)-5-(trifluoromethyl)-7H-pyrrolo[2,3-d]pyrimidin-7-yl)isonicotinonitrile]: the results for the half-maximal effective concentration (EC50) on Human TRPML3 and at Human TRPML2 were less than 100 nM and 500 to 2000 nM, respectively.

For `C[C@@H]1CN(c2ncnc3c2c(-c2ccccn2)cn3-c2cc(C#N)ccn2)[C@@H](C)CN1C(=O)c1ccccc1` [Compound 118, 2-(4-((2S,5R)-4-benzoyl-2,5-dimethylpiperazin-1-yl)-5-(pyridin-2-yl)-7H-pyrrolo[2,3-d]pyrimidin-7-yl)isonicotinonitrile], the EC50 on human TRPML1 fell in the range of 100 to 500 nM; at Human TRPML3, 500 to 2000 nM.

Take `C[C@@H]1CN(c2ncnc3c2c(N2CCC2)cn3-c2cc(C#N)ccn2)[C@@H](C)CN1C(=O)c1ccccc1` [Compound 107, 2-(5-(azetidin-1-yl)-4-((2S,5R)-4-benzoyl-2,5-dimethylpiperazin-1-yl)-7H-pyrrolo[2,3-d]pyrimidin-7-yl)isonicotinonitrile]: the values for the 50% effective concentration (EC50) at human TRPML1, at Human TRPML3 and at Human TRPML2 were less than 100 nM, 100 to 500 nM and 100 to 500 nM, respectively.

Turning to `C[C@@H]1CN(c2ncnc3c2c(-c2ccccc2)cn3-c2cc(C#N)ccn2)[C@@H](C)CN1C(=O)c1ccccc1` [Compound 116, 2-(4-((2S,5R)-4-benzoyl-2,5-dimethylpiperazin-1-yl)-5-phenyl-7H-pyrrolo[2,3-d]pyrimidin-7-yl)isonicotinonitrile], the EC50 on human TRPML1 is less than 100 nM; at Human TRPML3, 100 to 500 nM; on Human TRPML2 it was 500 to 2000 nM.

`C[C@@H]1CN(c2ncnc3c2c(-c2ccccc2F)cn3-c2cc(C#N)ccn2)[C@@H](C)CN1C(=O)c1ccccc1` [Compound 109, 2-(4-((2S,5R)-4-benzoyl-2,5-dimethylpiperazin-1-yl)-5-(2-fluorophenyl)-7H-pyrrolo[2,3-d]pyrimidin-7-yl)isonicotinonitrile]: the figures for the concentration for a half-maximal effect (EC50) on human TRPML1, at Human TRPML3 and on Human TRPML2 were less than 100 nM, less than 100 nM and 100 to 500 nM, respectively.

Turning to `C[C@@H]1CN(c2ncnc3c2c(C(F)(F)F)cn3-c2cc(C#N)ccn2)CCN1C(=O)c1ccccc1` [Compound 115, (R)-2-(4-(4-benzoyl-3-methylpiperazin-1-yl)-5-(trifluoromethyl)-7H-pyrrolo[2,3-d]pyrimidin-7-yl)isonicotinonitrile], the concentration giving a half-maximal response (EC50) on Human TRPML3 was less than 100 nM.

Turning to `C[C@H]1CN(C(=O)c2ccccc2)CCN1c1ncnc2c1c(C(F)(F)F)cn2-c1cc(C#N)ccn1` [Compound 117, (S)-2-(4-(4-benzoyl-2-methylpiperazin-1-yl)-5-(trifluoromethyl)-7H-pyrrolo[2,3-d]pyrimidin-7-yl)isonicotinonitrile], at Human TRPML3, the EC50 fell in the range of 500 to 2000 nM.

As to `C[C@@H]1CN(c2ncnc3c2c(C(F)(F)F)cn3-c2cccc(F)c2)[C@@H](C)CN1C(=O)c1ccccc1` [Compound 106, ((2R,5S)-4-(7-(3-fluorophenyl)-5-(trifluoromethyl)-7H-pyrrolo[2,3-d]pyrimidin-4-yl)-2,5-dimethylpiperazin-1-yl)(phenyl)methanone], the concentration for a half-maximal effect (EC50) was less than 100 nM on human TRPML1, 500 to 2000 nM at Human TRPML3 and more than 2000 nM at Human TRPML2.

Turning to `Cc1ccccc1C(=O)N1C[C@H](C)N(c2ncnc3c2c(N2CCC2)cn3-c2cc(C#N)ccn2)C[C@H]1C` [Compound 112, 2-(5-(azetidin-1-yl)-4-((2S,5R)-2,5-dimethyl-4-(2-methylbenzoyl)piperazin-1-yl)-7H-pyrrolo[2,3-d]pyrimidin-7-yl)isonicotinonitrile], the values for the EC50 at human TRPML1, at Human TRPML3 and on Human TRPML2 were 100 to 500 nM, 100 to 500 nM and 500 to 2000 nM, respectively.

In the case of `C[C@@H]1CN(c2ncnc3c2c(C2CC2)cn3-c2cccc(F)c2)[C@@H](C)CN1C(=O)c1ccccc1` [Compound 105, ((2R,5S)-4-(5-cyclopropyl-7-(3-fluorophenyl)-7H-pyrrolo[2,3-d]pyrimidin-4-yl)-2,5-dimethylpiperazin-1-yl)(phenyl)methanone], the results for the EC50 at human TRPML1, on Human TRPML3 and on Human TRPML2 were less than 100 nM, 500 to 2000 nM and more than 2000 nM, respectively.

As for `C[C@@H]1CN(c2ncnc3c2c(C2CCC2)cn3-c2cc(C#N)ccn2)[C@@H](C)CN1C(=O)c1ccccc1` [Compound 110, 2-(4-((2S,5R)-4-benzoyl-2,5-dimethylpiperazin-1-yl)-5-cyclobutyl-7H-pyrrolo[2,3-d]pyrimidin-7-yl)isonicotinonitrile], the results for the EC50 on human TRPML1, at Human TRPML3 and on Human TRPML2 were less than 100 nM, 100 to 500 nM and 100 to 500 nM, respectively.

As to `C[C@@H]1CN(c2ncnc3c2c(N2CCC2)cn3-c2cc(C#N)ccn2)CCN1C(=O)c1ccccc1` [Compound 101, (R)-2-(5-(azetidin-1-yl)-4-(4-benzoyl-3-methylpiperazin-1-yl)-7H-pyrrolo[2,3-d]pyrimidin-7-yl)isonicotinonitrile], the EC50 on human TRPML1 was less than 100 nM; at Human TRPML3, less than 100 nM; on Human TRPML2 it was 100 to 500 nM.

Take `C[C@@H]1CN(c2ncnc3c2c(N2CCC2)cn3-c2cc(C#N)ccn2)[C@@H](C)CN1C(=O)c1ccccc1F` [Compound 113, 2-(5-(azetidin-1-yl)-4-((2S,5R)-4-(2-fluorobenzoyl)-2,5-dimethylpiperazin-1-yl)-7H-pyrrolo[2,3-d]pyrimidin-7-yl)isonicotinonitrile]: the figures for the half-maximal effective concentration (EC50) at human TRPML1, at Human TRPML3 and on Human TRPML2 were 100 to 500 nM, 500 to 2000 nM and 100 to 500 nM, respectively.

For `C[C@@H]1CN(c2ncnc3c2c(C2CCC2)cn3-c2cccc(F)c2)[C@@H](C)CN1C(=O)c1ccccc1` [Compound 111, ((2R,5S)-4-(5-cyclobutyl-7-(3-fluorophenyl)-7H-pyrrolo[2,3-d]pyrimidin-4-yl)-2,5-dimethylpiperazin-1-yl)(phenyl)methanone], the EC50 was in the range of 100 to 500 nM on human TRPML1 and 500 to 2000 nM on Human TRPML3.

Take `Cc1cn(-c2cc(C#N)ccn2)c2ncnc(N3C[C@@H](C)N(C(=O)c4ccccc4)C[C@@H]3C)c12` [Compound 104, 2-(4-((2S,5R)-4-benzoyl-2,5-dimethylpiperazin-1-yl)-5-methyl-7H-pyrrolo[2,3-d]pyrimidin-7-yl)isonicotinonitrile]: the EC50 on Human TRPML3 was in the range of 100 to 500 nM.
